Data reported in patent US7989471B2, “Macrocyclic inhibitors of hepatitis C virus” (Tibotec Pharmaceuticals Ltd., priority 2005, dated 2011).

What follows are compounds tested on HCV replicons (NS3-NS5B regions of HCV type Ib) in Huh-7 luc/neo cells (assay: HCV replicon assay (Huh-Luc luciferase reporter)). Settings: Hepatitis C virus, Huh-7, 72 h.
Type: cell-based
Experimental: The in vitro antiviral activity against HCV of the compounds of formula (I) was tested in a cellular HCV replicon system based on Lohmann et al. (1999) Science 285:110-113, with the further modifications described by Krieger et al. (2001) Journal of Virology 75: 4614-4624, which is further exemplified in the examples section. This model, while not a complete infection model for HCV, is widely accepted as the most robust and efficient model of autonomous HCV RNA replication currently available. […] It will be appreciated that it is important to distinguish between compounds that specifically interfere with HCV functions from those that exert cytotoxic or cytostatic effects in the HCV replicon model, and as a consequence cause a decrease in HCV RNA or linked reporter enzyme concentration. Assays are known in the field for the evaluation of cellular cytotoxicity based for example on the activity of mitochondrial enzymes using fluorogenic redox dyes such as resazurin. Furthermore, cellular counter screens exist for the evaluation of non-selective inhibition of linked reporter gene activity, such as firefly luciferase. Appropriate cell types can be equipped by stable transfection with a luciferase reporter gene whose expression is dependent on a constitutively active gene promoter, and such cells can be used as a counter-screen to eliminate non-selective inhibitors.
The compounds of formula (I) were examined for activity in the inhibition of HCV RNA replication in a cellular assay. […] The cellular assay was based on a bicistronic expression construct, as described by Lohmann et al. (1999) Science vol. 285 pp. 110-113 with modifications described by Krieger et al. (2001) Journal of Virology 75: 4614-4624, in a multi-target screening strategy. In essence, the method was as follows.
The assay utilized the stably transfected cell line Huh-7 luc/neo (hereafter referred to as Huh-Luc). This cell line harbors an RNA encoding a bicistronic expression construct comprising the wild type NS3-NS5B regions of HCV type Ib translated from an Internal Ribosome Entry Site (IRES) from encephalomyocarditis virus (EMCV), preceded by a reporter portion (FfL-luciferase), and a selectable marker portion (neo^R, neomycine phosphotransferase). The construct is bordered by 5′ and 3′ NTRs (non-translated regions) from HCV type Ib. Continued culture of the replicon cells in the presence of G418 (neo^R) is dependent on the replication of the HCV RNA. The stably transfected replicon cells that express HCV RNA, which replicates autonomously and to high levels, encoding inter alia luciferase, are used for screening the antiviral compounds.
The replicon cells were plated in 384 well plates in the presence of the test and control compounds which were added in various concentrations. Following an incubation of three days, HCV replication was measured by assaying luciferase activity (using standard luciferase assay substrates and reagents and a Perkin Elmer ViewLux™ ultraHTS microplate imager). Replicon cells in the control cultures have high luciferase expression in the absence of any inhibitor. The inhibitory activity of the compound on luciferase activity was monitored on the Huh-Luc cells, enabling a dose-response curve for each test compound.

Q: `COc1ccc2c(O[C@@H]3C[C@H]4C(=O)N[C@]5(C(=O)O)C[C@H]5/C=C\CCCCCC(C)(C)C(=O)N4C3)cc(-c3nc(C(C)C)cs3)nc2c1Cl` [Compound 54, 18-[8-chloro-2-(4-isopropylthiazol-2-yl)-7-methoxyquinolin-4-yloxy]-14,14-dimethyl-2,15-dioxo-3,16-diazatricyclo[14.3.0.0^4,6]nonadec-7-ene-4-carboxylic acid] was tested. Which EC50 did it give?
A: ≥ 10000 nM

Same assay, conditions: Hepatitis C virus, Huh-7, 72 h; Huh-Luc replicon cells, three days incubation, luciferase activity; read-out: EC50

Q: For `COc1ccc2c(O[C@@H]3C[C@H]4C(=O)N[C@]5(C(=O)NS(=O)(=O)C6CC6)C[C@H]5CCCCCCCC(=O)N4C3)cc(-c3nc(C(C)C)cs3)nc2c1` (stereo in doubt) [Compound 64, N-[17-[2-(4-isopropylthiazol-2-yl)-7-methoxyquinolin-4-yloxy]-2,14-dioxo-3,15-diazatricyclo[13.3.0.0^4,6]octadecane-4-carbonyl]-(cyclopropyl)sulfonamide], which EC50 is on record?
A: 67 nM

Q: With `COc1ccc2c(O[C@@H]3C[C@H]4C(=O)N[C@]5(C(=O)O)C[C@H]5/C=C\CCCCCCC(=O)N4C3)cc(-c3nc(C(C)C)cs3)nc2c1` [Compound 10, 18-[2-[4-(isopropyl)thiazol-2-yl]-7-methoxyquinolin-4-yloxy]-2,15-dioxo-3,16-diazatricyclo[14.3.0.0^4,6]nonadec-7-ene-4-carboxylic acid] as the compound, how does the EC50 read?
A: 5040 nM

Q: For `COc1ccc2c(O[C@@H]3C[C@H]4C(=O)N[C@]5(C(=O)O)C[C@H]5/C=C\CCCCCCC(=O)N4C3)cc(-c3csc(NC(C)C)n3)nc2c1` [Compound 12, 18-[2-[2-(isopropylamino)thiazol-4-yl]-7-methoxyquinolin-4-yloxy]-2,15-dioxo-3,16-diazatricyclo[14.3.0.0^4,6]nonadec-7-ene-4-carboxylic acid], which EC50 is on record?
A: 1980 nM

Q: For `COc1ccc2c(O[C@@H]3C[C@H]4C(=O)N[C@]5(C(=O)NS(=O)(=O)C6CC6)C[C@H]5/C=C\CCCCCCC(=O)N4C3)cc(-c3csc(NC(C)C)n3)nc2c1` [Compound 13, N-[[18-[2-[2-(isopropylamino)thiazol-4-yl]-7-methoxyquinolin-4-yloxy]-2,15-dioxo-3,16-diazatricyclo[14.3.0.0^4,6]nonadec-7-en-4-yl]carbonyl](cyclopropyl)sulfonamide], which EC50 is on record?
A: 20 nM

Q: `COc1ccc2c(O[C@@H]3C[C@H]4C(=O)N[C@]5(C(=O)NS(=O)(=O)C6CC6)C[C@H]5/C=C\CCCCCCC(=O)N4C3)cc(-c3nccs3)nc2c1C` [Compound 26, N-[18-[2-(thiazol-2-yl)-7-methoxy-8-methylquinolin-4-yloxy]-2,15-dioxo-3,16-diazatricyclo[14.3.0.0^4,6]nonadec-7-ene-4-carbonyl]-(cyclopropyl)sulfonamide] was tested. Which EC50 did it give?
A: 4 nM

Q: For `COc1ccc2c(O[C@@H]3C[C@H]4C(=O)N[C@]5(C(=O)O)C[C@H]5/C=C\CCCCCCC(=O)N4C3)cc(-c3nc(C(C)C)cs3)nc2c1C` [Compound 29, 18-[2-(4-isopropylthiazol-2-yl)-7-methoxy-8-methylquinolin-4-yloxy]-2,15-dioxo-3,16-diazatricyclo[14.3.0.0^4,6]nonadec-7-ene-4-carboxylic acid], which EC50 is on record?
A: 1960 nM

Q: Which EC50 does the source give for `COc1ccc2c(O[C@@H]3C[C@H]4C(=O)N[C@]5(C(=O)NS(=O)(=O)C6CC6)C[C@H]5/C=C\CCCCCCC(=O)N4C3)cc(-c3nc(C(C)C)cs3)nc2c1C` [Compound 30, N-[18-[2-(4-isopropylthiazol-2-yl)-7-methoxy-8-methylquinolin-4-yloxy]-2,15-dioxo-3,16-diazatricyclo[14.3.0.0^4,6]nonadec-7-ene-4-carbonyl](cyclopropyl)sulfonamide] here?
A: 6 nM

Q: `COc1ccc2c(O[C@@H]3C[C@H]4C(=O)N[C@]5(C(=O)O)C[C@H]5/C=C\CCCCCCC(=O)N4C3)cc(-c3nccs3)nc2c1` [Compound 31, 18-[7-methoxy-2-(thiazol-2-yl)quinolin-4-yloxy]-2,15-dioxo-3,16-diazatricyclo[14.3.0.0^4,6]nonadec-7-ene-4-carboxylic acid] was tested. Which EC50 did it give?
A: 4940 nM

Q: For `COc1ccc2c(O[C@@H]3C[C@H]4C(=O)N[C@]5(C(=O)NS(=O)(=O)C6CC6)C[C@H]5/C=C\CCCCCCC(=O)N4C3)cc(-c3nccs3)nc2c1` [Compound 32, N-[18-[7-methoxy-2-(thiazol-2-yl)quinolin-4-yloxy]-2,15-dioxo-3,16-diazatricyclo[14.3.0.0^4,6]nonadec-7-ene-4-carbonyl](cyclopropyl)-sulfonamide], which EC50 is on record?
A: 17 nM

Q: For `COc1ccc2c(O[C@@H]3C[C@H]4C(=O)N[C@]5(C(=O)O)C[C@H]5/C=C\CCCCCCC(=O)N4C3)nc(-n3cccn3)cc2c1` [Compound 33, 18-[6-methoxy-3-(pyrazol-1-yl)isoquinolin-1-yloxy]-2,15-dioxo-3,16-diazatricyclo[14.3.0.0^4,6]nonadec-7-ene-4-carboxylic acid], which EC50 is on record?
A: 6100 nM

Q: Which EC50 does the source give for `COc1ccc2c(O[C@@H]3C[C@H]4C(=O)N[C@]5(C(=O)NS(=O)(=O)C6CC6)C[C@H]5/C=C\CCCCCCC(=O)N4C3)nc(-n3cccn3)cc2c1` [Compound 34, N-[18-[6-methoxy-3-(pyrazol-1-yl)isoquinolin-1-yloxy]-2,15-dioxo-3,16-diazatricyclo[14.3.0.0^4,6]nonadec-7-ene-4-carbonyl](cyclopropyl)-sulfonamide] here?
A: 40 nM

Q: How did the EC50 turn out when `COc1ccc2c(O[C@@H]3C[C@H]4C(=O)N[C@]5(C(=O)O)C[C@H]5/C=C\CCCCCCC(=O)N4C3)cc(-c3cscn3)nc2c1` [Compound 35, 18-[7-methoxy-2-(thiazol-4-yl)quinolin-4-yloxy]-2,15-dioxo-3,16-diazatricyclo[14.3.0.0^4,6]nonadec-7-ene-4-carboxylic acid] was run?
A: 1630 nM

Q: Which EC50 does the source give for `COc1ccc2c(O[C@@H]3C[C@H]4C(=O)N[C@]5(C(=O)NS(=O)(=O)C6CC6)C[C@H]5/C=C\CCCCCCC(=O)N4C3)cc(-c3cscn3)nc2c1` [Compound 36, N-[18-[7-methoxy-2-(thiazol-4-yl)quinolin-4-yloxy]-2,15-dioxo-3,16-diazatricyclo[14.3.0.0^4,6]nonadec-7-ene-4-carbonyl](cyclopropyl)-sulfonamide] here?
A: 4 nM

Q: Which EC50 does the source give for `COc1ccc2c(O[C@@H]3C[C@H]4C(=O)N[C@]5(C(=O)O)C[C@H]5/C=C\CCCCCCC(=O)N4C3)cc(-c3nccs3)nc2c1Br` [Compound 41, 18-[8-bromo-7-methoxy-2-(thiazol-2-yl)quinolin-4-yloxy]-2,15-dioxo-3,16-diazatricyclo[14.3.0.0^4,6]nonadec-7-ene-4-carboxylic acid] here?
A: 280 nM

Q: Which EC50 does the source give for `COc1ccc2c(O[C@@H]3C[C@H]4C(=O)N[C@]5(C(=O)NS(=O)(=O)C6CC6)C[C@H]5/C=C\CCCCCCC(=O)N4C3)cc(-c3nccs3)nc2c1Br` [Compound 42, N-[18-[8-bromo-2-(thiazol-2-yl)-7-methoxyquinolin-4-yloxy]-2,15-dioxo-3,16-diazatricyclo[14.3.0.0^4,6]nonadec-7-ene-4-carbonyl]-(cyclopropyl)sulfonamide] here?
A: 2 nM

Q: With `COc1ccc2c(O[C@@H]3C[C@H]4C(=O)N[C@]5(C(=O)NS(=O)(=O)C6CC6)C[C@H]5/C=C\CCCCCC(C)(C)C(=O)N4C3)cc(-c3nc(C(C)C)cs3)nc2c1Cl` [Compound 55, N-[18-[8-chloro-2-(4-isopropylthiazol-2-yl)-7-methoxyquinolin-4-yloxy]-14,14-dimethyl-2,15-dioxo-3,16-diazatricyclo[14.3.0.0^4,6]nonadec-7-ene-4-carbonyl](cyclopropyl)sulfonamide] as the compound, how does the EC50 read?
A: 198 nM

Q: For `COc1ccc2c(O[C@@H]3C[C@H]4C(=O)N[C@]5(C(=O)O)C[C@H]5/C=C\CCCCCC(=O)N4C3)cc(-c3nc(C(C)C)cs3)nc2c1Cl` [Compound 56, 17-[8-chloro-2-(4-isopropylthiazol-2-yl)-7-methoxyquinolin-4-yloxy]-2,14-dioxo-3,15-diazatricyclo[13.3.0.0^4,6]octadec-7-ene-4-carboxylic acid], which EC50 is on record?
A: 318 nM

Q: `COc1ccc2c(O[C@@H]3C[C@H]4C(=O)N[C@]5(C(=O)NS(=O)(=O)C6CC6)C[C@H]5/C=C\CCCCCC(=O)N4C3)cc(-c3nc(C(C)C)cs3)nc2c1Cl` [Compound 57, N-[17-[8-chloro-2-(4-isopropylthiazol-2-yl)-7-methoxyquinolin-4-yloxy]-2,14-dioxo-3,15-diazatricyclo[13.3.0.0^4,6]octadec-7-ene-4-carbonyl]-(cyclopropyl)sulfonamide] was tested. Which EC50 did it give?
A: 12 nM
